Data from patent US8173695B2, “Kappa selective opioid receptor antagonist” (Eli Lilly and Company, priority 2008, dated 2012).
Values joined by “and” are separate entries in the source; they are usually repeats but may differ in a detail not shown here. Identical values can stand only once.

What was measured:
[1] = test system: Male Fischer F-344 rats; assay: Stress-induced hyperthermia (in rat); format: in vivo; settings: for stress-induced hyperthermia (T2−T1): in °C
[2] = test system: Male NIH-Swiss mice; assay: Mouse forced swim test; format: in vivo; settings: for immobility in mouse forced swim test, Mean: 30 min
Excerpt: This test evaluates the effect of test compound on mice mobility as a measure of antidepressant effect. The less immobility compared to vehicle, the more pronounced the antidepressant-like effect.
Male, NIH-Swiss mice (25-30 g) (Harlan Sprague-Dawley, Indianapolis, Ind., USA) are housed in a vivarium for at least one week prior to use with water and rodent chow freely available during this acclimation period. Animals are removed from the vivarium to the testing area in their home cages and allowed to adapt to the new environment for at least one hour before testing.
Mice are placed in clear plastic cylinders (diameter: 10 cm; height: 25 cm) filled with 6 cm of water (22-25° C.) for six minutes. The duration of immobility during the last four minutes of the six minutes test period is scored. A mouse is recorded as immobile when floating motionless or making only those movements necessary to keep its head above water.
The test compound is administered p.o. 1 hour prior to testing at 1.0 mg/kg, 3.0 mg/kg and 10.0 mg/kg, n of 8 per group in a vehicle of 5 ml of sterile water and 30 ml of diluted (10×) lactic acid. Imipramine is evaluated as a positive control, 15 mg/kg: p, 30 min. prior to testing n of 4.
A second study is carried out evaluating 1 and 3 mg/kg doses of the compound of Example 1A alone and in combination with 5 mg/kg of imipramine. Imipramine alone is evaluated at 5 and 15 mg/kg doses and a vehicle control is included in the study. For the combination studies, the compound of Example 1A is administered p.o. 30 minutes prior to administration of imipramine i.p. and the test initiated 30 minutes following imipramine administration. An n of 8 per group is evaluated for all groups. For the evaluations of the compound of Example 1A alone, testing is initiated 60 minutes following administration and testing of imipramine only treated animals is initiated 30 minutes following administration.

[3] = test system: Sprague Dawley rats; assay: Prepulse inhibition, reversal of morphine induced disruption of PPI; format: in vivo, rat; settings: vehicle/20 mg/kg morphine sc; 20 mg/kg
[4] = Study 1, positive control 10 mg/kg

**Q.** For `CNC1=Nc2ccc(Cl)cc2C(c2ccccc2)=[N+]([O-])C1` [CDP, chlordiazepoxide, reference compound], which “stress-induced hyperthermia (T2−T1)” value ([1]; Study 2, 1 mg/kg CDP alone, po) is on record?
**A.** 0.75±0.06

**Q.** For `CN(C)CCCN1c2ccccc2CCc2ccccc21` [Imipramine, imipramine, reference compound], which “immobility in mouse forced swim test, Mean” value ([2]; Imipramine 5 mg/kg i.p.) is on record?
**A.** 161.94 s

**Q.** And the “immobility in mouse forced swim test, Mean” value ([2]; Imipramine 15 mg/kg i.p.)?
**A.** 61.70 s

**Q.** And the “antidepressant effect, in words” value ([2]; imipramine 15 mg/kg, over vehicle control, p<0.05)?
**A.** statistically significant antidepressant effect

**Q.** `Cc1nc(C#Cc2cccnc2)cs1` [MTEP, 3-[(2-methyl-1,3-thiazol-4-yl)ethynyl]pyridine, reference compound] was tested. Which baseline body temperatures [1, 4] did it give?
**A.** without affecting

**Q.** And the “reduction in stress-induced hyperthermia, in words” value ([1]; Study 1, positive control 10 mg/kg, p<0.05)?
**A.** significantly reduces

**Q.** What about the “stress-induced hyperthermia (T2−T1)” value [1, 4] of the same compound?
**A.** 0.42±0.09

**Q.** For `CN1CC[C@]23c4c5ccc(O)c4O[C@H]2[C@@H](O)C=C[C@H]3[C@H]1C5` [morphine, reference compound], which “% Inhibition (PPI), individual rats” value [3] is on record?
**A.** 26.99% and −12.64% and 34.65% and 32.59% and 5.49% and 49.11% and 53.95% and 44.81% and 35.01% and −9.49% and 51.85% and 24.04% and 4.72% and 50.03%
